Data published in US20100267561A1, “HERBICIDAL PYRIDAZINONE DERIVATIVES” (priority 2007, published 2010).

Columns and labels:
Assay type in all cases: in vivo
[1] = test system: Italian ryegrass (Lolium multiflorum); assay: Test B pre-/postemergence plant response
Summary of the method: (§1)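 Visual scoring from 0 (no effect) to 100 (complete control) against untreated controls was done 13 to 15 days after greenhouse treatment. Chemicals were formulated in a surfactant-containing non-phytotoxic solvent and applied to soil preemergence or to 1- to 4-leaf (2-18 cm) plants postemergence.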

[2] = test system: Russian thistle (Salsola iberica); assay: Test B pre-/postemergence plant response; conditions: Preemergence
Summary of the method: as §1

[3] = test system: bermudagrass (Cynodon dactylon); assay: Test B pre-/postemergence plant response; conditions: for Bermudagrass plant response rating: 8 g ai/ha
Summary of the method: as §1

[4] = test system: cocklebur (Xanthium strumarium); assay: Test B pre-/postemergence plant response; conditions: for Cocklebur plant response rating: 8 g ai/ha
Summary of the method: as §1

[5] = test system: eastern black (E.B.) nightshade (Solanum ptycanthum); assay: Test B pre-/postemergence plant response; conditions: Preemergence
Summary of the method: as §1

[6] = test system: goosegrass (Eleusine indica); assay: Test B pre-/postemergence plant response
Summary of the method: as §1

[7] = test system: green foxtail (Setaria viridis); assay: Test B pre-/postemergence plant response
Summary of the method: as §1

[8] = test system: johnsongrass (Sorghum halepense); assay: Test B pre-/postemergence plant response
Summary of the method: as §1

[9] = test system: large crabgrass (Digitaria sanguinalis); assay: Test B pre-/postemergence plant response
Summary of the method: as §1

[10] = test system: morningglory (Ipomoea coccinea); assay: Test B pre-/postemergence plant response
Summary of the method: as §1

soybean (Glycine max) = assay: Test B pre-/postemergence plant response
Summary of the method: as §1

[11] = test system: surinam grass (Brachiaria decumbens); assay: Test B pre-/postemergence plant response
Summary of the method: as §1

[12] = test system: wheat (Triticum aestivum); assay: Test B pre-/postemergence plant response
Summary of the method: as §1

[13] = test system: chickweed (Stellaria media); assay: Test B postemergence plant response; conditions: for Plant response rating, Chickweed: Postemergence
Summary of the method: (§2)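 Visual injury score from 0 (none) to 100 (complete control) versus controls, taken 13 to 15 days after treatment in the greenhouse; chemicals applied postemergence, as formulated, to plants of 1- to 4-leaf stage (2 to 18 cm tall); dash denotes no test result.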

[14] = test system: windgrass (Apera spica-venti); assay: Test B postemergence plant response; conditions: for Plant response rating, Windgrass: Postemergence
Summary of the method: as §2

[15] = test system: winter barley (Hordeum vulgare); assay: Test B postemergence plant response; conditions: for Plant response rating, Barley: Postemergence, scale 0 to 100, 0 no effect, 100 complete control
Summary of the method: as §2

[16] = 8 g ai/ha, postemergence, 0-100 scale
[17] = Postemergence, 16 g ai/ha, scale 0 to 100
[18] = Postemergence, 31 g ai/ha, scale 0 to 100
[19] = Postemergence, 62 g ai/ha, scale 0 to 100, 0 no effect, 100 complete control
[20] = Preemergence, 31 g ai/ha, scale 0 to 100 (0 no effect, 100 complete control)
[21] = Preemergence, 62 g ai/ha, scale 0 to 100
[22] = Preemergence, 8 g ai/ha, scale 0 to 100
[23] = Preemergence, 16 g ai/ha, scale 0 to 100
[24] = 31 g ai/ha, scale 0 to 100 (0 no effect, 100 complete control)
[25] = Preemergence, 16 g ai/ha, scale 0 to 100 (0 no effect, 100 complete control)
[26] = Preemergence, 31 g ai/ha, 0 to 100 scale, 0 no effect, 100 complete control
[27] = Preemergence, 62 g ai/ha, 0 to 100 scale, 0 no effect, 100 complete control
[28] = 62 g ai/ha, scale 0 to 100, 0 no effect, 100 complete control

Cc1cc(-c2ccc(Cl)cc2)nn1-c1c(OC(=O)c2cccs2)cnn(C)c1=O [Compound 52]
95: Plant response rating, Ryegrass, Italian [1, 18] | Plant response rating, Ryegrass, Italian [1, 20] | Ryegrass, Italian plant response rating [1, 23] | Plant response rating, Foxtail, Green [7, 17] | Plant response rating, Johnsongrass [8, 19]
20: Plant response rating, Wheat [12, 20]
60: Goosegrass plant response rating [6, 16] | Plant response rating, Windgrass ([14]; 31 g ai/ha, scale 0 to 100)
70: Ryegrass, Italian plant response rating [1, 16] | Surinam Grass plant response rating [11, 16] | Plant response rating, Wheat [12, 18]
40: Bermudagrass plant response rating ([3]; postemergence, 0-100 scale)
25: Plant response rating, Surinam Grass [11, 20]
80: Plant response rating, Ryegrass, Italian [1, 17] | Plant response rating, Goosegrass [6, 18] | Foxtail, Green plant response rating [7, 16] | Plant response rating, Johnsongrass [8, 17] | Plant response rating, Johnsongrass [8, 26] | Plant response rating, Windgrass [14, 28]
55: Johnsongrass plant response rating [8, 22]
85: Plant response rating, Bermudagrass [3, 21] | Plant response rating, Goosegrass [6, 19] | Plant response rating, Johnsongrass [8, 21] | Plant response rating, Crabgrass, Large [9, 17] | Plant response rating, Surinam Grass [11, 17] | Plant response rating, Wheat [12, 19]
50: Plant response rating, Wheat [12, 17] | Plant response rating, Wheat [12, 27]
65: Plant response rating, Goosegrass [6, 17] | Johnsongrass plant response rating [8, 23] | Crabgrass, Large plant response rating [9, 16]
0: Ryegrass, Italian plant response rating [1, 22] | Plant response rating, Russian Thistle [2, 24] | Plant response rating, Russian Thistle ([2]; 62 g ai/ha, scale 0 to 100) | Russian Thistle plant response rating ([2]; 8 g ai/ha, scale 0 to 100) | Russian Thistle plant response rating ([2]; 16 g ai/ha, scale 0 to 100) | Bermudagrass plant response rating ([3]; Preemergence, scale 0 to 100 (0 no effect, 100 complete control)) | Plant response rating, Bermudagrass [3, 25] | Plant response rating, Bermudagrass [3, 26] | Cocklebur plant response rating ([4]; postemergence, 0-100 scale) | Plant response rating, Cocklebur [4, 17] | Plant response rating, Cocklebur [4, 18] | Plant response rating, Cocklebur [4, 19] | Plant response rating, Cocklebur [4, 25] | Plant response rating, Cocklebur [4, 26] | Plant response rating, Cocklebur [4, 21] | Cocklebur plant response rating ([4]; Preemergence, scale 0 to 100) | Plant response rating, Nightshade, E. B. [5, 24] | Plant response rating, Nightshade, E. B. ([5]; 62 g ai/ha, scale 0 to 100) | Nightshade, E. B. plant response rating ([5]; 8 g ai/ha, scale 0 to 100) | Nightshade, E. B. plant response rating ([5]; 16 g ai/ha, scale 0 to 100) | Plant response rating, Goosegrass [6, 26] | Plant response rating, Goosegrass [6, 21] | Goosegrass plant response rating [6, 22] | Goosegrass plant response rating [6, 23] | Plant response rating, Crabgrass, Large [9, 26] | Plant response rating, Crabgrass, Large [9, 21] | Crabgrass, Large plant response rating [9, 22] | Crabgrass, Large plant response rating [9, 23] | Morningglory plant response rating [10, 16] | Plant response rating, Morningglory [10, 17] | Plant response rating, Morningglory [10, 18] | Plant response rating, Morningglory [10, 19] | Morningglory plant response rating [10, 22] | Morningglory plant response rating [10, 23] | Soybean plant response rating (soybean (Glycine max); [16]) | Plant response rating, Soybean (soybean (Glycine max); [17]) | Plant response rating, Soybean (soybean (Glycine max); [18]) | Plant response rating, Soybean (soybean (Glycine max); [19]) | Plant response rating, Soybean (soybean (Glycine max); [21]) | Soybean plant response rating (soybean (Glycine max); [22]) | Soybean plant response rating (soybean (Glycine max); [23]) | Surinam Grass plant response rating [11, 22] | Surinam Grass plant response rating [11, 23] | Wheat plant response rating [12, 16] | Wheat plant response rating [12, 22] | Wheat plant response rating [12, 23] | Chickweed plant response rating [13, 16] | Plant response rating, Chickweed ([13]; 16 g ai/ha, scale 0 to 100) | Plant response rating, Chickweed ([13]; 31 g ai/ha, scale 0 to 100) | Plant response rating, Chickweed [13, 28] | Windgrass plant response rating [14, 16] | Plant response rating, Windgrass ([14]; 16 g ai/ha, scale 0 to 100) | Barley plant response rating [15, 16] | Plant response rating, Barley ([15]; 16 g ai/ha) | Plant response rating, Barley ([15]; 31 g ai/ha) | Plant response rating, Barley ([15]; 62 g ai/ha)
75: Johnsongrass plant response rating [8, 16]
90: Foxtail, Green plant response rating [7, 22] | Foxtail, Green plant response rating [7, 23] | Plant response rating, Johnsongrass [8, 18] | Plant response rating, Morningglory [10, 20]
100: Plant response rating, Ryegrass, Italian [1, 19] | Plant response rating, Ryegrass, Italian [1, 21] | Plant response rating, Bermudagrass [3, 18] | Plant response rating, Bermudagrass [3, 19] | Plant response rating, Foxtail, Green [7, 19] | Plant response rating, Foxtail, Green [7, 26] | Plant response rating, Foxtail, Green [7, 21] | Plant response rating, Crabgrass, Large [9, 18] | Plant response rating, Crabgrass, Large [9, 19] | Plant response rating, Morningglory [10, 21] | Plant response rating, Surinam Grass [11, 18] | Plant response rating, Surinam Grass [11, 19] | Plant response rating, Surinam Grass [11, 27]
98: Plant response rating, Bermudagrass [3, 17] | Plant response rating, Foxtail, Green [7, 18]
